# Values of other authors as cited in patent US7645792B2, “Prodrugs of propofol, compositions and uses thereof” (XenoPort, Inc., priority 2004, dated 2010).
# Details: rats, oral dosing
smiles,measurement,value
"CC(C)c1cccc(C(C)C)c1O [propofol, 2,6-diisopropylphenol]",Administered drug undergoing first pass metabolism,approximately 90%
